According to paper PMC5376326, “Inhibition of ANO1 by luteolin and its cytotoxicity in human prostate cancer PC-3 cells” (PLoS ONE, 2017):
“And” between values parts separate entries of the source, which are not always exact repeats. Equal entries are not always repeated.

Legend:
PC-3 cells [1] = test: Intracellular calcium measurement (Fluo-4) in PC-3 cells; format: cell-based, human; conditions: 100 μM ATP
Protocol: (§1) Intracellular calcium levels were monitored using Fluo-4 NW calcium assay kit (Invitrogen, Carlsbad, CA) as per the manufacturer's protocol in FRT and PC-3 cells. Briefly, the cells were cultured in a 96 well plate and incubated with 100 μL assay buffer including Fluo-4 NW. After 1 hour incubation, Fluo-4 fluorescence was measured with a FLUOstar Omega microplate reader equipped with syringe pumps and custom Fluo-4 excitation/emission filters (485/538 nm). Intracellular calcium increase was induced by application of 100 μM ATP.

ANO1 = test: Quantitative real-time PCR of ANO1 mRNA in PC-3 cells; format: cell-based, human
Protocol: Total messenger RNA (mRNA) was extracted by using a TRIzol reagent (Invitrogen, Carlsbad, CA). Quantitative Real-time PCRs were performed using the StepOnePlus Real-Time PCR System (Applied Biosystems, CA) and Thunderbird SYBR qPCR mix (Toyobo, Osaka, Japan). The thermal cycling conditions comprised an initial step at 95°C for 5 minutes followed by 40 cycles at 95°C for 10 seconds, 55°C for 20 seconds, and 72°C for 10 seconds in a 96-well reaction plate. Primers used were as follows: ANO1-sense 5′-GGAGAAGCAGCATCTATTTG-3′, ANO1-antisense 5′ GATCTCATAGACAATCGTGC-3′, β-actin-sense 5′-GCAAAGACCTGTACGCCAACAC-3′ and β-actin-antisense 5′-ATCTCCTTCTGCATCCTGTC-3′. ANO1 mRNA levels were normalized to β-actin levels and the fold-change in gene expression was determined by using 2^-ΔΔCT method. Quantitative PCR experiments were carried out in triplicates.

PC-3 cells [2] = test: Cell proliferation (MTS) assay in PC-3 cells; format: cell-based, human; conditions: 24 hour; for Inhibition of cell proliferation, high versus low ANO1 expressing PC-3 cells: 3-100 μM
Protocol: PC-3 cells were seeded to a confluency of ~30% on Day 1 in 96-well plates. […] After 24 hour elapsed, the influence of luteolin and kaempferol on the cell viability was estimated by MTS assay. Briefly, the cells were reincubated with MTS for 1 hour. The soluble formazan produced by cellular reduction of MTS was quantified by measuring the absorbance at 490 nm with Infinite M200 (Tecan, Grödig, Austria) microplate reader. MTS assay was done using CellTiter 96 Aqueous One Solution Cell Proliferation Assay kit (Promega, Madison, WI).

human ANO1 (abc) = target: T1, human ANO1 (abc) (Homo sapiens, UniProt Q5XXA6, DEL476-501); test: YFP fluorescence quenching assay (iodide influx) in FRT cells expressing human ANO1; format: cell-based; conditions: for IC50: FRT cells expressing ANO1 and YFP, ATP activation, mean ± S.E., n = 3, read-out: IC50, ANO1 inhibition (YFP fluorescence quenching)
T1 sequence (Q5XXA6 with tags, fused parts or gaps isoform Q5XXA6-5 DEL539-564): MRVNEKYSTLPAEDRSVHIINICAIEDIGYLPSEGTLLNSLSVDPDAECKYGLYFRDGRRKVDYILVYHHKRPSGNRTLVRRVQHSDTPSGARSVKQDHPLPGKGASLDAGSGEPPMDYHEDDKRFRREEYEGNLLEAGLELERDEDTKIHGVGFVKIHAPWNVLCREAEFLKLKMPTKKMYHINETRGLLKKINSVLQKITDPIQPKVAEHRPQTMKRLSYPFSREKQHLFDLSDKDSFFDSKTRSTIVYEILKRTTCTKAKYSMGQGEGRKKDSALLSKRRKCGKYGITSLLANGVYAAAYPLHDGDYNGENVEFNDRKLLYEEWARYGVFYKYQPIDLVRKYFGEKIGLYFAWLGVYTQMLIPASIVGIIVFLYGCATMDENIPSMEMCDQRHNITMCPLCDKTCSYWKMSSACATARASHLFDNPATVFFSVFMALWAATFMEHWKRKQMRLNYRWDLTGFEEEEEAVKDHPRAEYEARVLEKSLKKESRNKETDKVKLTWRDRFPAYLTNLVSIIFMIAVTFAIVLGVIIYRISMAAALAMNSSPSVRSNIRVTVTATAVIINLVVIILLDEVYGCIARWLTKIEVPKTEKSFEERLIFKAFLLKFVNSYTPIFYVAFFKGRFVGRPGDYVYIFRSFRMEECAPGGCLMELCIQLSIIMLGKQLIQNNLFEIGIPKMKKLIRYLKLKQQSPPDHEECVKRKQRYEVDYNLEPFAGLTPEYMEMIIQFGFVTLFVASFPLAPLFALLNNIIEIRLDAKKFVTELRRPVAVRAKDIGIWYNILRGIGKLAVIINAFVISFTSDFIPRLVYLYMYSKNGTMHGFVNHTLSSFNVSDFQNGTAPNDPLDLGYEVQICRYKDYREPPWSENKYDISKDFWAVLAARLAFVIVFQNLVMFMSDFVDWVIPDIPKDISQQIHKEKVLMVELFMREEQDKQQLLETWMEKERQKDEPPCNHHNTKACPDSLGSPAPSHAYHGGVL
Protocol: Fisher rat thyroid (FRT) cells were stably transfected with human ANO1 (abc) or mouse ANO2 and the halide sensor YFP as described in previous study. FRT cells were cultured in Coon`s modified F12 medium with 10% FBS, 2 mM L-glutamine, 100 units/ml penicillin and 100 μg/ml streptomycin at 37°C and 5% CO2. PC-3 cells were grown in RPMI 1640 medium supplemented with 10% FBS, 100 units/ml penicillin and 100 μg/ml streptomycin at 37°C and 5% CO2. There were populations of PC-3 cells with high and low expression of ANO1. To separate high and low levels of ANO1 expressing PC-3 cells, cells were stably transfected with the halide sensor YFP-H148Q/I152L/F46L and then the cells were plated on 96 well plates at 1 cell per well. After two weeks of incubation, high and low levels of ANO1 expressing PC-3 cells were separated by YFP quenching assay. ANO1 was activated by 100 μM ATP.
ANO1 and YFP expressing FRT cells were plated in 96-well black-walled microplates (Corning Inc., Corning, NY) at a density of 20,000 cells per well. Assays were done using FLUOstar Omega microplate reader (BMG Labtech, Ortenberg, Germany) and MARS Data Analysis Software (BMG Labtech) as described in our previous study. Briefly, each well of 96-well plate was washed 3 times in PBS (200 μL/wash) and test compounds were added to each well at 25 μM final concentration. After 10 minutes incubation at 37°C, 96-well plates were transferred to the plate reader for fluorescence assay. Each well was assayed individually for ANO1-mediated I^- influx by monitoring YFP fluorescence continuously (400 ms per point) for 2 s (baseline), then 140 mM I^- solution containing 200 μM ATP was added at 2 s and then YFP fluorescence was recorded for 6 s. Initial iodide influx rate was determined from the initial slope of fluorescence decrease, by nonlinear regression, following infusion of iodide with ATP.

PC-3 = test system: PC-3; design: method as in PMID 18008333, PMID 23300633; conditions: intraperitoneal 10 mg/kg; PC-3 xenograft mouse; cited from earlier work
FRT cells = test: Intracellular calcium measurement (Fluo-4) in FRT cells; format: cell-based, rat; conditions: 30 and 100 μM, 20 min pretreatment, 100 μM ATP
Protocol: as §1

Row | Structure (SMILES) | Effect on ATP-induced intracellular calcium increase (PC-3 cells [1]) | Change of ANO1 gene expression levels (ANO1; 10 μM) | Inhibition of cell proliferation, high versus low ANO1 expressing PC-3 cells (PC-3 cells [2]) | IC50 (human ANO1 (abc)) | Volume and weight of solid tumors (PC-3) | Increase of ANO1 mRNA expression levels (ANO1; 10 μM) | Change of ANO1 gene expression levels (ANO1; 30 μM) | Effect on ATP-induced cytosolic calcium increase (FRT cells) | Decrease of cell viability (PC-3 cells [2]; 30 μM, PC-3 cells expressing high levels of ANO1) | Block of ATP-induced ANO1 activation (YFP) (human ANO1 (abc); 100 μM)
1 | O=c1c(O)c(-c2ccc(O)cc2)oc2cc(O)cc(O)c12 [Kaempferol] | did not alter | slightly increased | did not show the significant difference | 14.55 ± 0.03 µM |  |  |  |  |  | 
2 | O=c1cc(-c2ccc(O)c(O)c2)oc2cc(O)cc(O)c12 [luteolin] | did not alter | slightly increased | significantly stronger in PC-3 cells with high levels of ANO1 expression | 9.37 µM and ~9.4 µM | significantly decreased | ~ 1.3 fold | significantly decreased | not affected | 52.6 ± 3.8% | almost completely blocked
